Laboratory results published in BindingDB's records for patent US9457039 (Merck Sharp & Dohme Corp, 2016).

Target: T1, Genome polyprotein [2420-3010] (HCV, UniProt P26663)
T1 construct: 2420-3010
Assay: Inhibition Assay
Settings: pH 7.3; 25 °C
Protocol: To measure inhibition of the enzymatic activity of the HCV NS5B RNA-dependent RNA polymerase by the nucleoside triphosphate compounds of the present invention, a radiolabeled nucleotide incorporation assay was used. […] The assay was then terminated by the addition of 500 mM EDTA (50 μL). The reaction mixture was transferred to a Millipore DE81 filter plate and the incorporation of labeled CTP is determined using Packard TopCount.

T1 sequence (P26663 2420-3010): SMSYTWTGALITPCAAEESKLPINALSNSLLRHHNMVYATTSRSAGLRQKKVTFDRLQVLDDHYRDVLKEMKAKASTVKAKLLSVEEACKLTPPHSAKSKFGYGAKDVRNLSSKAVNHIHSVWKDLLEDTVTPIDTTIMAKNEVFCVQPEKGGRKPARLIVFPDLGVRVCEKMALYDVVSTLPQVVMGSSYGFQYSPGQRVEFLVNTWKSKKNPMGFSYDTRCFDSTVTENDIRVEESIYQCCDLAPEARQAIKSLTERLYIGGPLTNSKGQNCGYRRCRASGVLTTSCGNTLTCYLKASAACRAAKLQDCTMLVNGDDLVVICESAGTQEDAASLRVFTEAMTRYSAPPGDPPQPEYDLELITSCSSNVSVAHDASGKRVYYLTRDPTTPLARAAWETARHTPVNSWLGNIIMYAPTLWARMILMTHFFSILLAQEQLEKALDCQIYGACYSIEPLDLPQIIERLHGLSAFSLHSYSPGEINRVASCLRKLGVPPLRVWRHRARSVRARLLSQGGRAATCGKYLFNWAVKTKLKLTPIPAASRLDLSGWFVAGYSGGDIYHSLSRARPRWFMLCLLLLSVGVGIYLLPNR

SMILES	IC50
C[C@@]1(N)[C@H](O)[C@@H](COP(=O)(O)OP(=O)(O)OP(=O)(O)O)O[C@H]1c1cnc2c(N)ncnn12 [US9457039, 23]	6.7 µM
C[C@@]1(N=[N+]=[N-])[C@H](O)[C@@H](COP(=O)(O)OP(=O)(O)OP(=O)(O)O)O[C@H]1c1cnc2c(N)ncnn12 [US9457039, 22]	0.93 µM
C[C@@]1(N)[C@H](O)[C@@H](COP(=O)(O)OP(=O)(O)OP(=O)(O)O)O[C@H]1c1cnn2c(N)ncnc12 [US9457039, 25]	51 µM
C[C@@]1(N)[C@H](O)[C@@H](COP(=O)(O)OP(=O)(O)OP(=O)(O)O)O[C@H]1c1ccc2c(N)ncnn12 [US9457039, 24]	1.1 µM
